Results: patent US9260439B2, “Dihydropyrrolopyrimidine derivatives” (PFIZER INC., priority 2014, dated 2016)

Molecular target: truncated PI3Kα (p110α/iSH2 p85α) (Homo sapiens (Human), UniProt P42336)
Experiment: PI3KA_Act fluorescence polarization kinase assay (Ki)
Format: biochemical
Conditions: 1 mM ATP
Summary of the method: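 Ki values result from fitting fluorescence polarization signals to the Morrison equation for tight-binding competitive inhibitors. The detector was GST-Grp1 PH domain with TAMRA-PIP3, read after a 30 min room-temperature reaction of 0.5 nM truncated PI3Kα and 30 μM PIP2 at pH 7.4 in HEPES/NaCl/MgCl2/DTT/CHAPS buffer. Compounds were tested as 12-point 3-fold dilutions from 3 μM.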

truncated PI3Kα (p110α/iSH2 p85α), sequence (P42336 whole entry, the tested form may be a part): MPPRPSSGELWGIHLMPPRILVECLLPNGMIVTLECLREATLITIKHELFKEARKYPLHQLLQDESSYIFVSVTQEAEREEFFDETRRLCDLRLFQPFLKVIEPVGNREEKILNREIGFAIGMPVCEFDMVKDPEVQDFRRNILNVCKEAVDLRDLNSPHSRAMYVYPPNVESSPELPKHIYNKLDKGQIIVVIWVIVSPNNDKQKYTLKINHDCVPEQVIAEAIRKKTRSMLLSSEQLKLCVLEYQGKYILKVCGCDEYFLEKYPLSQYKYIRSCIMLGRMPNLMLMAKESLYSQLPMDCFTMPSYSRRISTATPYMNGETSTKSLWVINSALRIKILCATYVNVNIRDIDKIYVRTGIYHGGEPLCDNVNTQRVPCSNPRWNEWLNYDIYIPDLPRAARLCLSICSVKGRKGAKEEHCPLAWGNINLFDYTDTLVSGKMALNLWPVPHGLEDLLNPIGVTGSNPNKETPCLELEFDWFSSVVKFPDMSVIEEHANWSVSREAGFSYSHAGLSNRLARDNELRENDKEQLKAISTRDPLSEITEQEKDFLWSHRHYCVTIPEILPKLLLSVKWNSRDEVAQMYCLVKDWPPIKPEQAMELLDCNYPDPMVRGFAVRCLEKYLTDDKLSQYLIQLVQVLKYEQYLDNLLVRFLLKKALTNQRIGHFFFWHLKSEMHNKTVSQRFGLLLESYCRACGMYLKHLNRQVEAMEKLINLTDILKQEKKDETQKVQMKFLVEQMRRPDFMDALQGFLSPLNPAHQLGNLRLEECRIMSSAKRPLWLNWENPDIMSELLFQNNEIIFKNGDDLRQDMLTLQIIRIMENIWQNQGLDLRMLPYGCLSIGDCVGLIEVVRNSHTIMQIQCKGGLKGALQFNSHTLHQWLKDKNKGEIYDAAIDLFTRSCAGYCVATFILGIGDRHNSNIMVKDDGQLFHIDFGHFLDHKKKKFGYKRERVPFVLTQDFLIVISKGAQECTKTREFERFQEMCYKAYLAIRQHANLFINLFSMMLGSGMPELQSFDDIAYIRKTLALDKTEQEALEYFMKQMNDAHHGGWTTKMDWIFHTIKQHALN

SMILES | PI3KA_Act Ki [nM]
C[C@]1(N2CCc3c(-c4cnc(N)nc4)nc(N4CCOCC4)nc32)CCNC1=O [Example 258, (3S)-3-[4-(2-aminopyrimidin-5-yl)-2-(morpholin-4-yl)-5,6-dihydro-7H-pyrrolo[2,3-d]pyrimidin-7-yl]-3-methylpyrrolidin-2-one] | 31.787
CC(=O)N1CC[C@@](C)(N2CCc3c(-c4cnc(N)nc4)nc(N4CCOCC4)nc32)C1 [Example 259, 1-{(3R)-3-[4-(2-aminopyrimidin-5-yl)-2-(morpholin-4-yl)-5,6-dihydro-7H-pyrrolo[2,3-d]pyrimidin-7-yl]-3-methylpyrrolidin-1-yl}ethanone] | 0.139
CCC(=O)N1CC[C@](C)(N2CCc3c(-c4cnc(N)nc4)nc(N4CCOCC4)nc32)C1 [Example 260, 1-{(3S)-3-[4-(2-aminopyrimidin-5-yl)-2-(morpholin-4-yl)-5,6-dihydro-7H-pyrrolo[2,3-d]pyrimidin-7-yl]-3-methylpyrrolidin-1-yl}propan-1-one] | 0.030
CCC(=O)N1CC[C@@](C)(N2CCc3c(-c4cnc(N)nc4)nc(N4CCOCC4)nc32)C1 [Example 261, 1-{(3R)-3-[4-(2-aminopyrimidin-5-yl)-2-(morpholin-4-yl)-5,6-dihydro-7H-pyrrolo[2,3-d]pyrimidin-7-yl]-3-methylpyrrolidin-1-yl}propan-1-one] | 0.143
CC(C)C(=O)N1CC[C@](C)(N2CCc3c(-c4cnc(N)nc4)nc(N4CCOCC4)nc32)C1 [Example 262, 1-{(3S)-3-[4-(2-aminopyrimidin-5-yl)-2-(morpholin-4-yl)-5,6-dihydro-7H-pyrrolo[2,3-d]pyrimidin-7-yl]-3-methylpyrrolidin-1-yl}-2-methylpropan-1-one] | <0.018
CC(C)C(=O)N1CC[C@@](C)(N2CCc3c(-c4cnc(N)nc4)nc(N4CCOCC4)nc32)C1 [Example 263, 1-{(3R)-3-[4-(2-aminopyrimidin-5-yl)-2-(morpholin-4-yl)-5,6-dihydro-7H-pyrrolo[2,3-d]pyrimidin-7-yl]-3-methylpyrrolidin-1-yl}-2-methylpropan-1-one] | 0.122
CC(C)(C)C(=O)N1CC[C@](C)(N2CCc3c(-c4cnc(N)nc4)nc(N4CCOCC4)nc32)C1 [Example 264, 1-{(3S)-3-[4-(2-aminopyrimidin-5-yl)-2-(morpholin-4-yl)-5,6-dihydro-7H-pyrrolo[2,3-d]pyrimidin-7-yl]-3-methylpyrrolidin-1-yl}-2,2-dimethylpropan-1-one] | <0.018
C[C@]1(N2CCc3c(-c4cnc(N)nc4)nc(N4CCOCC4)nc32)CCN(C(=O)CC#N)C1 [Example 265, 3-{(3S)-3-[4-(2-aminopyrimidin-5-yl)-2-(morpholin-4-yl)-5,6-dihydro-7H-pyrrolo[2,3-d]pyrimidin-7-yl]-3-methylpyrrolidin-1-yl}-3-oxopropanenitrile] | 0.048
C[C@@]1(N2CCc3c(-c4cnc(N)nc4)nc(N4CCOCC4)nc32)CCN(C(=O)CC#N)C1 [Example 266, 3-{(3R)-3-[4-(2-aminopyrimidin-5-yl)-2-(morpholin-4-yl)-5,6-dihydro-7H-pyrrolo[2,3-d]pyrimidin-7-yl]-3-methylpyrrolidin-1-yl}-3-oxopropanenitrile] | 0.139
C[C@@H](O)C(=O)N1CC[C@](C)(N2CCc3c(-c4cnc(N)nc4)nc(N4CCOCC4)nc32)C1 [Example 267, (2R)-1-{(3S)-3-[4-(2-aminopyrimidin-5-yl)-2-(morpholin-4-yl)-5,6-dihydro-7H-pyrrolo[2,3-d]pyrimidin-7-yl]-3-methylpyrrolidin-1-yl}-2-hydroxypropan-1-one] | 0.041
C[C@H](O)C(=O)N1CC[C@](C)(N2CCc3c(-c4cnc(N)nc4)nc(N4CCOCC4)nc32)C1 [Example 268, (2S)-1-{(3S)-3-[4-(2-aminopyrimidin-5-yl)-2-(morpholin-4-yl)-5,6-dihydro-7H-pyrrolo[2,3-d]pyrimidin-7-yl]-3-methylpyrrolidin-1-yl}-2-hydroxypropan-1-one] | 0.100
C[C@@H](O)C(=O)N1CC[C@@](C)(N2CCc3c(-c4cnc(N)nc4)nc(N4CCOCC4)nc32)C1 [Example 269, (2R)-1-{(3R)-3-[4-(2-aminopyrimidin-5-yl)-2-(morpholin-4-yl)-5,6-dihydro-7H-pyrrolo[2,3-d]pyrimidin-7-yl]-3-methylpyrrolidin-1-yl}-2-hydroxypropan-1-one] | 0.222
C[C@H](O)C(=O)N1CC[C@@](C)(N2CCc3c(-c4cnc(N)nc4)nc(N4CCOCC4)nc32)C1 [Example 270, (2S)-1-{(3R)-3-[4-(2-aminopyrimidin-5-yl)-2-(morpholin-4-yl)-5,6-dihydro-7H-pyrrolo[2,3-d]pyrimidin-7-yl]-3-methylpyrrolidin-1-yl}-2-hydroxypropan-1-one] | 0.074
CC(C)[C@@H](O)C(=O)N1CC[C@](C)(N2CCc3c(-c4cnc(N)nc4)nc(N4CCOCC4)nc32)C1 [Example 271, (2R)-1-{(3S)-3-[4-(2-aminopyrimidin-5-yl)-2-(morpholin-4-yl)-5,6-dihydro-7H-pyrrolo[2,3-d]pyrimidin-7-yl]-3-methylpyrrolidin-1-yl}-2-hydroxy-3-methylbutan-1-one] | 0.016
CC(C)[C@H](O)C(=O)N1CC[C@](C)(N2CCc3c(-c4cnc(N)nc4)nc(N4CCOCC4)nc32)C1 [Example 272, (2S)-1-{(3S)-3-[4-(2-aminopyrimidin-5-yl)-2-(morpholin-4-yl)-5,6-dihydro-7H-pyrrolo[2,3-d]pyrimidin-7-yl]-3-methylpyrrolidin-1-yl}-2-hydroxy-3-methylbutan-1-one] | 0.022
CC(C)(O)C(=O)N1CC[C@](C)(N2CCc3c(-c4cnc(N)nc4)nc(N4CCOCC4)nc32)C1 [Example 275, 1-{(3S)-3-[4-(2-aminopyrimidin-5-yl)-2-(morpholin-4-yl)-5,6-dihydro-7H-pyrrolo[2,3-d]pyrimidin-7-yl]-3-methylpyrrolidin-1-yl}-2-hydroxy-2-methylpropan-1-one] | 0.030
CC(C)(O)CN1CC[C@@](C)(N2CCc3c(-c4cnc(N)nc4)nc(N4CCOCC4)nc32)C1 [Example 276, 1-{(3R)-3-[4-(2-aminopyrimidin-5-yl)-2-(morpholin-4-yl)-5,6-dihydro-7H-pyrrolo[2,3-d]pyrimidin-7-yl]-3-methylpyrrolidin-1-yl}-2-methylpropan-2-ol] | 0.182
COC(C)(C)C(=O)N1CC[C@](C)(N2CCc3c(-c4cnc(N)nc4)nc(N4CCOCC4)nc32)C1 [Example 278, 1-{(3S)-3-[4-(2-aminopyrimidin-5-yl)-2-(morpholin-4-yl)-5,6-dihydro-7H-pyrrolo[2,3-d]pyrimidin-7-yl]-3-methylpyrrolidin-1-yl}-2-methoxy-2-methylpropan-1-one] | <0.018
COCC(=O)N1CC[C@](C)(N2CCc3c(-c4cnc(N)nc4)nc(N4CCOCC4)nc32)C1 [Example 279, 1-{(3S)-3-[4-(2-aminopyrimidin-5-yl)-2-(morpholin-4-yl)-5,6-dihydro-7H-pyrrolo[2,3-d]pyrimidin-7-yl]-3-methylpyrrolidin-1-yl}-2-methoxyethanone] | 0.027
